From patent publication US9452986B2, “6-heteroaryloxy- or 6-aryloxy-quinoline-2-carboxamides and method of use” (AbbVie Inc., priority 2014, dated 2016)

The compounds below were run against recombinant human Nav1.7 (Homo sapiens (Human), UniProt Q15858) (assay: FRET-based membrane potential assay, recombinant human sodium channel Nav1.7). Conditions: HEK293 cells stably expressing recombinant human Nav1.7; veratridine + scorpion venom depolarization; read-out: FRET-Membrane Potential Nav1.7 IC50.
recombinant human Nav1.7, sequence (Q15858 whole entry): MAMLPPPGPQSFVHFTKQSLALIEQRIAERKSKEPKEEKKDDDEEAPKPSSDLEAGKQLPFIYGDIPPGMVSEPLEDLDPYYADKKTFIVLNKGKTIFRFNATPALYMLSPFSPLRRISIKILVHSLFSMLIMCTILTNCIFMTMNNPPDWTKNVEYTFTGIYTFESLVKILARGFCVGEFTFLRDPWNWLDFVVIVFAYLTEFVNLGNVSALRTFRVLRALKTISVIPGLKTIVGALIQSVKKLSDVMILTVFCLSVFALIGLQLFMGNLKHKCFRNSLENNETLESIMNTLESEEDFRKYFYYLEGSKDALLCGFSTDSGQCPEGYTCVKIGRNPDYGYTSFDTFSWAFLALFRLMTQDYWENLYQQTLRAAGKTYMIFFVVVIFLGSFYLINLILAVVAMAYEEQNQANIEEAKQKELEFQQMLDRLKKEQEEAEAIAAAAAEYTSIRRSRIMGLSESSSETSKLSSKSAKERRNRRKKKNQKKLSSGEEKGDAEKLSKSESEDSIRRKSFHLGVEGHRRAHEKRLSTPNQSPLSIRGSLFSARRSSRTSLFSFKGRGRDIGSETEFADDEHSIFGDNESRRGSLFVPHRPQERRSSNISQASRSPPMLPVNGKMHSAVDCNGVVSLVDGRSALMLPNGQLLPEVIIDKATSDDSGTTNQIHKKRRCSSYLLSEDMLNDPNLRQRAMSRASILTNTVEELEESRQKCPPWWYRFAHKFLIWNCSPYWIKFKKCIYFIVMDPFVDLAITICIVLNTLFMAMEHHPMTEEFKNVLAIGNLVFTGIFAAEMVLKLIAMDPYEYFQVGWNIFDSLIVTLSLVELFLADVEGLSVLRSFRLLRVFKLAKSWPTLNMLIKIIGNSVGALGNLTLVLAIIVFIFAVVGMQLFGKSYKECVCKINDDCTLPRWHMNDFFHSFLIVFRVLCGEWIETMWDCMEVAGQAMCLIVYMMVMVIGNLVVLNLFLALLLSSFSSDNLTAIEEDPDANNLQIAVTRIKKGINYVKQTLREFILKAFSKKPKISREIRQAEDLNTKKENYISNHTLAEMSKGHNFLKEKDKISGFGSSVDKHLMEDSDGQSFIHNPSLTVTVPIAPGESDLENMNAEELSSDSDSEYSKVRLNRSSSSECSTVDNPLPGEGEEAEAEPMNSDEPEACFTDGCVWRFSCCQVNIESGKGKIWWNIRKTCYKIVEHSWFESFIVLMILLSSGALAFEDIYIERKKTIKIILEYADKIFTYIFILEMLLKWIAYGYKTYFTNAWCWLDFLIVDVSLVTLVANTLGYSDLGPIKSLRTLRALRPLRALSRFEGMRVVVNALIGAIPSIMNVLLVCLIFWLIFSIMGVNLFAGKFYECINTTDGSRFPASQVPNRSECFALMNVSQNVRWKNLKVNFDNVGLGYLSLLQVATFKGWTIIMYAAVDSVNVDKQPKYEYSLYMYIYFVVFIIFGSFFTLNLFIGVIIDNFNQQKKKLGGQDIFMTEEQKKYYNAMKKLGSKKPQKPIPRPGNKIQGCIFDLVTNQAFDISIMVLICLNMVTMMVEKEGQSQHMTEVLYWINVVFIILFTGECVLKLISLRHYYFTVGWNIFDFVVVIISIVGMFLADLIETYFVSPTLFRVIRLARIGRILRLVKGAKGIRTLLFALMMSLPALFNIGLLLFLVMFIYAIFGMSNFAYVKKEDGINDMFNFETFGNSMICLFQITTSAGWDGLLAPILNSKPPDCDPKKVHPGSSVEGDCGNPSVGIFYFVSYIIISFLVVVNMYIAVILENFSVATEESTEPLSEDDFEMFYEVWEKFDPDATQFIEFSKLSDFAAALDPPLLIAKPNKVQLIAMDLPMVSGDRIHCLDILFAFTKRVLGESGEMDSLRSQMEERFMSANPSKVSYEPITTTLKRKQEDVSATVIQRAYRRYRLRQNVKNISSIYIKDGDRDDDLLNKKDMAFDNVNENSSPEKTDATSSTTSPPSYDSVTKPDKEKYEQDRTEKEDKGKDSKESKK
Type: cell-based
Method in brief: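 Channel activation used veratridine at its EC80, set by a dilution curve each experiment, together with Leiurus scorpion venom, added 3 min after compound. Membrane-potential ratio signals from FLIPR Tetra in HEPES-buffered HBSS were fitted to a four-parameter Hill equation for percent inhibition and IC50.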
For `Cc1ccnc(Oc2ccc3nc(C(=O)NC4CCS(=O)(=O)C4)ccc3c2)n1` (stereo not shown) [Example 163, N-(1,1-dioxidotetrahydrothiophen-3-yl)-6-[(4-methylpyrimidin-2-yl)oxy]quinoline-2-carboxamide], the IC50 was > 20 µM. `O=C(c1ccc2cc(Oc3ccc(C(F)(F)F)cn3)ccc2n1)N1C[C@H]2CNC[C@H]2C1` [Example 164, (3 aR,6aS)-hexahydropyrrolo[3,4-c]pyrrol-2(1H)-yl(6-{[5-(trifluoromethyl)pyridin-2-yl]oxy}quinolin-2-yl)methanone] was tested, and the IC50 was 12.7 µM. For `O=C(NC1CCS(=O)(=O)C1)c1ccc2cc(Oc3ccc(Cl)nn3)ccc2n1` (stereo not shown) [Example 165, 6-[(6-chloropyridazin-3-yl)oxy]-N-(1,1-dioxidotetrahydrothiophen-3-yl)quinoline-2-carboxamide], the IC50 was > 20 µM. `O=C1NC[C@@H]2CN(C(=O)c3ccc4cc(Oc5ccc(C(F)(F)F)cn5)ccc4n3)C[C@H]12` [Example 166, (3 aR,6aR)-5-[(6-{[5-(trifluoromethyl)pyridin-2-yl]oxy}quinolin-2-yl)carbonyl]hexahydropyrrolo[3,4-c]pyrrol-1(2H)-one] gave an IC50 of 11.1 µM. With `O=C(NC1CCS(=O)(=O)C1)c1ccc2cc(Oc3ccc(C(F)(F)F)nn3)ccc2n1` (stereo not shown) [Example 168, N-(1,1-dioxidotetrahydrothiophen-3-yl)-6-{[6-(trifluoromethyl)pyridazin-3-yl]oxy}quinoline-2-carboxamide] the IC50 was > 20 µM. `O=C1NCCN2CCN(C(=O)c3ccc4cc(Oc5ccc(C(F)(F)F)cn5)ccc4n3)CC12` (stereo not shown) [Example 169, 8-[(6-{[5-(trifluoromethyl)pyridin-2-yl]oxy}quinolin-2-yl)carbonyl]hexahydro-2H-pyrazino[1,2-a]pyrazin-1(6H)-one] was tested, and the IC50 was 17.2 µM. In the case of `O=C(c1ccc2cc(Oc3ccc(C(F)(F)F)cn3)ccc2n1)N1CCn2cnnc2C1` [Example 170, 5,6-dihydro[1,2,4]triazolo[4,3-a]pyrazin-7(8H)-yl(6-{[5-(trifluoromethyl)pyridin-2-yl]oxy}quinolin-2-yl)methanone], the IC50 is reported as 8.87 µM. Work on `O=C1NCC(=O)N2CCN(C(=O)c3ccc4cc(Oc5ccc(C(F)(F)F)cn5)ccc4n3)CC12` (stereo not shown) [Example 171, 8-[(6-{[5-(trifluoromethyl)pyridin-2-yl]oxy}quinolin-2-yl)carbonyl]tetrahydro-2H-pyrazino[1,2-a]pyrazine-1,4(3H,6H)-dione] yielded an IC50 of 7.95 µM. For `O=C1CN(C(=O)c2ccc3cc(Oc4ccc(C(F)(F)F)cn4)ccc3n2)CCN1` [Example 172, 4-[(6-{[5-(trifluoromethyl)pyridin-2-yl]oxy}quinolin-2-yl)carbonyl]piperazin-2-one], the IC50 was 10.5 µM. With `O=C(c1ccc2cc(Oc3ccc(C(F)(F)F)cn3)ccc2n1)N1CCn2cncc2C1` [Example 173, 5,6-dihydroimidazo[1,5-a]pyrazin-7(8H)-yl(6-{[5-(trifluoromethyl)pyridin-2-yl]oxy}quinolin-2-yl)methanone] the IC50 was 0.833 µM. `O=C(NCCN1CCCC1)c1ccc2cc(Oc3ccc(C(F)(F)F)cn3)ccc2n1` [Example 174, N-[2-(pyrrolidin-1-yl)ethyl]-6-{[5-(trifluoromethyl)pyridin-2-yl]oxy}quinoline-2-carboxamide] showed an IC50 of 0.294 µM. Compound `O=C(NCCN1CCCCC1)c1ccc2cc(Oc3ccc(C(F)(F)F)cn3)ccc2n1` [Example 175, N-[2-(piperidin-1-yl)ethyl]-6-{[5-(trifluoromethyl)pyridin-2-yl]oxy}quinoline-2-carboxamide] has an IC50 of 0.206 µM. For `CC(C)S(=O)(=O)N1CCN(C(=O)c2ccc3cc(Oc4ccc(C(F)(F)F)cn4)ccc3n2)CC1` [Example 177, [4-(isopropylsulfonyl)piperazin-1-yl](6-{[5-(trifluoromethyl)pyridin-2-yl]oxy}quinolin-2-yl)methanone], the IC50 was 2.68 µM. In the case of `O=C(c1ccc2cc(Oc3ccc(C(F)(F)F)cn3)ccc2n1)N1C[C@@H](F)C[C@@H]1c1cc(F)ccc1F` [Example 179, [(2R,4S)-2-(2,5-difluorophenyl)-4-fluoropyrrolidin-1-yl](6-{[5-(trifluoromethyl)pyridin-2-yl]oxy}quinolin-2-yl)methanone], the IC50 is reported as 0.684 µM. Work on `O=C(c1ccc2cc(Oc3ccc(C(F)(F)F)cn3)ccc2n1)N1C[C@H](F)C[C@@H]1c1cc(F)ccc1F` [Example 180, [(2R,4R)-2-(2,5-difluorophenyl)-4-fluoropyrrolidin-1-yl](6-{[5-(trifluoromethyl)pyridin-2-yl]oxy}quinolin-2-yl)methanone] yielded an IC50 of 0.675 µM. Work on `O=C(c1ccc2cc(Oc3ccc(C(F)(F)F)cn3)ccc2n1)N1CCN(CC(F)(F)F)CC1` [Example 181, [4-(2,2,2-trifluoroethyl)piperazin-1-yl](6-{[5-(trifluoromethyl)pyridin-2-yl]oxy}quinolin-2-yl)methanone] yielded an IC50 of 3.47 µM. Compound `O=C(c1ccc2cc(Oc3ccc(C(F)(F)F)cn3)ccc2n1)N1CCN(c2ccccn2)CC1` [Example 182, [4-(pyridin-2-yl)piperazin-1-yl](6-{[5-(trifluoromethyl)pyridin-2-yl]oxy}quinolin-2-yl)methanone] has an IC50 of 0.69 µM. For `O=C(c1ccc2cc(Oc3ccc(C(F)(F)F)cn3)ccc2n1)N1CCN(S(=O)(=O)c2cccnc2)CC1` [Example 183, [4-(pyridin-3-ylsulfonyl)piperazin-1-yl](6-{[5-(trifluoromethyl)pyridin-2-yl]oxy}quinolin-2-yl)methanone], the IC50 was > 20 µM. Compound `O=C(c1ccc2cc(Oc3ccc(C(F)(F)F)cn3)ccc2n1)N1CCN(S(=O)(=O)N2CCCCC2)CC1` [Example 184, [4-(piperidin-1-ylsulfonyl)piperazin-1-yl](6-{[5-(trifluoromethyl)pyridin-2-yl]oxy}quinolin-2-yl)methanone] has an IC50 of 0.923 µM. For `O=C(c1ccc2cc(Oc3ccc(C(F)(F)F)cn3)ccc2n1)N1CCN(S(=O)(=O)N2CCOCC2)CC1` [Example 185, [4-(morpholin-4-ylsulfonyl)piperazin-1-yl](6-{[5-(trifluoromethyl)pyridin-2-yl]oxy}quinolin-2-yl)methanone], the IC50 was > 20 µM. In the case of `COC(=O)N1CCN(C(=O)c2ccc3cc(Oc4ccc(C(F)(F)F)cn4)ccc3n2)CC1` [Example 186, methyl 4-[(6-{[5-(trifluoromethyl)pyridin-2-yl]oxy}quinolin-2-yl)carbonyl]piperazine-1-carboxylate], the IC50 is reported as 3.97 µM. For `CN(C)C(=O)N1CCN(C(=O)c2ccc3cc(Oc4ccc(C(F)(F)F)cn4)ccc3n2)CC1` [Example 187, N,N-dimethyl-4-[(6-{[5-(trifluoromethyl)pyridin-2-yl]oxy}quinolin-2-yl)carbonyl]piperazine-1-carboxamide], the IC50 was > 20 µM. In the case of `CN1C(=O)CN(C(=O)c2ccc3cc(Oc4ccc(C(F)(F)F)cn4)ccc3n2)CC12COC2` [Example 188, 5-methyl-8-[(6-{[5-(trifluoromethyl)pyridin-2-yl]oxy}quinolin-2-yl)carbonyl]-2-oxa-5,8-diazaspiro[3.5]nonan-6-one], the IC50 is reported as 9.53 µM. `O=C(c1ccc2cc(Oc3ccc(C(F)(F)F)cn3)ccc2n1)N1CC2CNCCN2C1=O` (stereo not shown) [Example 189, 2-[(6-{[5-(trifluoromethyl)pyridin-2-yl]oxy}quinolin-2-yl)carbonyl]hexahydroimidazo[1,5-a]pyrazin-3(2H)-one] showed an IC50 of 15.1 µM. In the case of `O=C(c1ccc2cc(Oc3ccc(C(F)(F)F)cn3)ccc2n1)N1CCC(F)(F)C(O)C1` (stereo not shown) [Example 193, (4,4-difluoro-3-hydroxypiperidin-1-yl)(6-{[5-(trifluoromethyl)pyridin-2-yl]oxy}quinolin-2-yl)methanone], the IC50 is reported as 4.25 µM. `C[C@H]1N(C(=O)c2ccc3cc(Oc4ccc(C(F)(F)F)cn4)ccc3n2)CC1(C)C` [Example 197, (6-{[5-(trifluoromethyl)pyridin-2-yl]oxy}quinolin-2-yl)[(2R)-2,3,3-trimethylazetidin-1-yl]methanone] was tested, and the IC50 was 2.72 µM. In the case of `CC1(O)CN(C(=O)c2ccc3cc(Oc4ccc(C(F)(F)F)cn4)ccc3n2)C1` [Example 198, (3-hydroxy-3-methylazetidin-1-yl)(6-{[5-(trifluoromethyl)pyridin-2-yl]oxy}quinolin-2-yl)methanone], the IC50 is reported as 2.21 µM. `CC1(Oc2ccccc2)CN(C(=O)c2ccc3cc(Oc4ccc(C(F)(F)F)cn4)ccc3n2)C1` [Example 200, (3-methyl-3-phenoxyazetidin-1-yl)(6-{[5-(trifluoromethyl)pyridin-2-yl]oxy}quinolin-2-yl)methanone] was tested, and the IC50 was > 20 µM. For `O=C(c1ccc2cc(Oc3ccc(C(F)(F)F)cn3)ccc2n1)N1CC(n2ccnc2)C1` [Example 202, [3-(1H-imidazol-1-yl)azetidin-1-yl](6-{[5-(trifluoromethyl)pyridin-2-yl]oxy}quinolin-2-yl)methanone], the IC50 was 0.911 µM.

Same assay, conditions: read-out: FRET-Membrane Potential Nav1.7 IC50
`CS(=O)(=O)N1CCN(C(=O)c2ccc3cc(Oc4ccc(C(F)(F)F)cn4)ccc3n2)CC1` [Example 176, [4-(methylsulfonyl)piperazin-1-yl](6-{[5-(trifluoromethyl)pyridin-2-yl]oxy}quinolin-2-yl)methanone] gave an IC50 of 8.77 µM. `O=C(c1ccc2cc(Oc3ccc(C(F)(F)F)cn3)ccc2n1)N1CCN(S(=O)(=O)c2ccccc2)CC1` [Example 178, [4-(phenylsulfonyl)piperazin-1-yl](6-{[5-(trifluoromethyl)pyridin-2-yl]oxy}quinolin-2-yl)methanone] showed an IC50 of 0.523 µM. In the case of `O=C(c1ccc2cc(Oc3ccc(C(F)(F)F)cn3)ccc2n1)N1CCC(O)C(F)(F)C1` (stereo not shown) [Example 190, (3,3-difluoro-4-hydroxypiperidin-1-yl)(6-{[5-(trifluoromethyl)pyridin-2-yl]oxy}quinolin-2-yl)methanone], the IC50 is reported as 12.1 µM. With `COCC1(C)CN(C(=O)c2ccc3cc(Oc4ccc(C(F)(F)F)cn4)ccc3n2)C1` [Example 199, [3-(methoxymethyl)-3-methylazetidin-1-yl](6-{[5-(trifluoromethyl)pyridin-2-yl]oxy}quinolin-2-yl)methanone] the IC50 was 2.55 µM. With `O=C(c1ccc2cc(Oc3ccc(C(F)(F)F)cn3)ccc2n1)N1CC(Oc2ccccc2)C1` [Example 201, (3-phenoxyazetidin-1-yl)(6-{[5-(trifluoromethyl)pyridin-2-yl]oxy}quinolin-2-yl)methanone] the IC50 was > 20 µM.
